Reference: ChEMBL document CHEMBL4184210, “Optimization of novel monobactams with activity against carbapenem-resistant Enterobacteriaceae - Identification of LYS228” (Bioorg Med Chem Lett, 2018)
Converted amounts (≈) assume the structure as drawn. Values belong to the compound of their own block, whether it stands above or below them.

What was measured:
Escherichia coli [1] = assay: Antimicrobial activity against Escherichia coli expressing beta-lactamase KPC-2 by CLSI broth microdilution method; type: functional
Escherichia coli [2] = assay: Antimicrobial activity against Escherichia coli expressing beta-lactamase TEM-1 by CLSI broth microdilution method; type: functional
Escherichia coli [3] = assay: Antimicrobial activity against Escherichia coli expressing beta-lactamase NDM-5 by CLSI broth microdilution method; type: functional
[4] = Chemical stability in pH 7.4 potassium phosphate buffer assessed as half life for compound hydrolysis at 37 degC by UPLC and mass spectrometry; type: physicochemical
Pseudomonas aeruginosa [5] = assay: Antimicrobial activity against Pseudomonas aeruginosa ATCC 27853 by CLSI broth microdilution method; type: functional
Pseudomonas aeruginosa [6] = assay: Antimicrobial activity against Pseudomonas aeruginosa expressing delta-mexB/mexXY/delta-ampDh2/ delta-ampD by CLSI broth microdilution method; type: functional
Escherichia coli [7] = assay: microbe, parasite or virus in culture
Description: Antimicrobial activity against wild type Escherichia coli by CLSI broth microdilution method

Escherichia coli [8] = assay: microbe, parasite or virus in culture; remark: listed apart in the source
Description: Antimicrobial activity against Escherichia coli expressing beta-lactamase CTXM-3 by CLSI broth microdilution method

Escherichia coli [9] = assay: microbe, parasite or virus in culture; remark: listed apart in the source
Description: Antimicrobial activity against Escherichia coli expressing beta-lactamase KPC-8 by CLSI broth microdilution method

Escherichia coli [10] = assay: microbe, parasite or virus in culture; remark: listed apart in the source
Description: Antimicrobial activity against Escherichia coli expressing beta-lactamase PER-4 by CLSI broth microdilution method

Escherichia coli [11] = assay: microbe, parasite or virus in culture; remark: listed apart in the source
Description: Antimicrobial activity against Escherichia coli expressing beta-lactamase TEM-16 by CLSI broth microdilution method

Escherichia coli [12] = assay: microbe, parasite or virus in culture; remark: listed apart in the source
Description: Antimicrobial activity against Escherichia coli expressing beta-lactamase TEM-24 by CLSI broth microdilution method

Escherichia coli [13] = assay: microbe, parasite or virus in culture; remark: listed apart in the source
Description: Antimicrobial activity against Escherichia coli expressing beta-lactamase TEM-47 by CLSI broth microdilution method

Escherichia coli [14] = assay: microbe, parasite or virus in culture; remark: listed apart in the source
Description: Antimicrobial activity against Escherichia coli expressing beta-lactamase TEM-121 by CLSI broth microdilution method

Escherichia coli [15] = assay: microbe, parasite or virus in culture; remark: listed apart in the source
Description: Antimicrobial activity against Escherichia coli expressing beta-lactamase GIM-1 by CLSI broth microdilution method

Escherichia coli [16] = assay: microbe, parasite or virus in culture; remark: listed apart in the source
Description: Antimicrobial activity against Escherichia coli expressing beta-lactamase SPM-1 by CLSI broth microdilution method

Escherichia coli [17] = assay: microbe, parasite or virus in culture; remark: listed apart in the source
Description: Antimicrobial activity against Escherichia coli expressing beta-lactamase Oxa-23 by CLSI broth microdilution method

Escherichia coli [18] = assay: microbe, parasite or virus in culture; remark: listed apart in the source
Description: Antimicrobial activity against Escherichia coli expressing beta-lactamase Oxa-40 by CLSI broth microdilution method

Escherichia coli [19] = assay: microbe, parasite or virus in culture; remark: listed apart in the source
Description: Antimicrobial activity against Escherichia coli expressing beta-lactamase Oxa-51 by CLSI broth microdilution method

Escherichia coli [20] = assay: microbe, parasite or virus in culture; remark: listed apart in the source
Description: Antimicrobial activity against Escherichia coli expressing beta-lactamase Oxa-146 by CLSI broth microdilution method

Escherichia coli [21] = assay: microbe, parasite or virus in culture; remark: listed apart in the source
Description: Antimicrobial activity against Escherichia coli expressing beta-lactamase Oxa-225 by CLSI broth microdilution method

Mus musculus = assay: Toxicity in CD1 mouse assessed as induction of convulsion at 100 mg/kg, icv measured 1 hr after post dose; type: organism-based; details: in vivo, icv_or_intrathecal
[22] = Stability assessed as assessed as Escherichia coli beta-lactamase KPC-2-mediated compound hydrolysis by measuring molar enthalpy of hydrolysis at 1 mM by isothermal titration calorimetry; type: ADME; details: 1000 µM
[23] = Volume of distribution in mouse at 10 mg/kg, iv; type: ADME, organism-based; details: in vivo
[24] = Volume of distribution in rat at 10 mg/kg, iv; type: ADME, organism-based; details: in vivo
[25] = Volume of distribution in dog at 10 mg/kg, iv; type: ADME, organism-based, Canis lupus familiaris; details: in vivo
[26] = Half life in mouse at 10 mg/kg, iv; type: ADME, organism-based; details: in vivo
[27] = Half life in rat at 10 mg/kg, iv; type: ADME, organism-based; details: in vivo
[28] = Half life in dog at 10 mg/kg, iv; type: ADME, organism-based, Canis lupus familiaris; details: in vivo
[29] = AUC in mouse at 10 mg/kg, iv; type: ADME, organism-based; details: in vivo
[30] = AUC in rat at 10 mg/kg, iv; type: ADME, organism-based; details: in vivo
[31] = AUC in dog at 10 mg/kg, iv; type: ADME, organism-based, Canis lupus familiaris; details: in vivo
[32] = Drug excretion in rat assessed as unchanged parent drug level at 10 mg/kg, iv; type: ADME, organism-based; details: in vivo, read-out: Drug excretion
[33] = Drug excretion in dog assessed as unchanged parent drug level at 10 mg/kg, iv; type: ADME, organism-based, Canis lupus familiaris; details: in vivo, read-out: Drug excretion
[34] = Clearance in mouse at 10 mg/kg, iv; type: ADME, organism-based; details: in vivo
[35] = Clearance in rat at 10 mg/kg, iv; type: ADME, organism-based; details: in vivo
[36] = Clearance in dog at 10 mg/kg, iv; type: ADME, organism-based, Canis lupus familiaris; details: in vivo
Klebsiella pneumoniae [37] = assay: Antimicrobial activity against Klebsiella pneumoniae expressing beta-lactamase NDM-1 by CLSI broth microdilution method; type: functional
Klebsiella pneumoniae [38] = assay: Antimicrobial activity against Klebsiella pneumoniae expressing beta-lactamase NDM-1 infected in neutropenic mouse thigh infection model assessed as compound dose causing 1 log10 CFU reduction in bacterial load dosed subcutaneously every 4 hrs; type: functional
Klebsiella pneumoniae [39] = assay: Antimicrobial activity against Klebsiella pneumoniae expressing beta-lactamase NDM-1 infected in neutropenic mouse thigh infection model assessed as fT>MIC for causing 1 log10 CFU reduction in bacterial load dosed subcutaneously every 4 hrs; type: functional
in vitro [40] = details: mouse, plasma
Description: Protein binding in mouse plasma

in vitro [41] = details: rat, plasma
Description: Protein binding in rat plasma

in vitro [42] = details: dog, plasma
Description: Protein binding in dog plasma

in vitro [43] = details: human, plasma
Description: Protein binding in human plasma

Structure (SMILES): N=C(N)NCc1cnn(C[C@@H]2[C@H](NC(=O)/C(=N\OC3(C(=O)O)CC3)c3csc(N)n3)C(=O)N2S(=O)(=O)O)n1 (stereo in doubt)
- MIC (Escherichia coli [1]): 0.125 µg/mL (≈ 0.219 µM)
- MIC (Escherichia coli [2]): 0.125 µg/mL (≈ 0.219 µM)
- MIC (Escherichia coli [3]): 0.25 µg/mL (≈ 0.437 µM)
- half-life [4]: 20.2 days
- MIC (Pseudomonas aeruginosa [5]): 2 µg/mL (≈ 3.5 µM)
- MIC (Pseudomonas aeruginosa [6]): 32 µg/mL (≈ 56 µM)
- MIC (Escherichia coli [7]): 0.06 µg/mL (≈ 0.105 µM)
- MIC (Escherichia coli [8]): 0.25 µg/mL (≈ 0.437 µM)
- MIC (Escherichia coli [9]): 1 µg/mL (≈ 1.75 µM)
- MIC (Escherichia coli [10]): 4 µg/mL (≈ 7 µM)
- MIC (Escherichia coli [11]): 0.5 µg/mL (≈ 0.875 µM)
- MIC (Escherichia coli [12]): 0.25 µg/mL (≈ 0.437 µM)
- MIC (Escherichia coli [13]): 0.125 µg/mL (≈ 0.219 µM)
- MIC (Escherichia coli [14]): 0.5 µg/mL (≈ 0.875 µM)
- MIC (Escherichia coli [15]): 0.125 µg/mL (≈ 0.219 µM)
- MIC (Escherichia coli [16]): 0.06 µg/mL (≈ 0.105 µM)
- MIC (Escherichia coli [17]): 0.25 µg/mL (≈ 0.437 µM)
- MIC (Escherichia coli [18]): 0.125 µg/mL (≈ 0.219 µM)
- MIC (Escherichia coli [19]): 0.125 µg/mL (≈ 0.219 µM)
- MIC (Escherichia coli [20]): 4 µg/mL (≈ 7 µM)
- MIC (Escherichia coli [21]): 0.25 µg/mL (≈ 0.437 µM)

Structure (SMILES): NC[C@@H]1CN(C[C@@H]2[C@H](NC(=O)/C(=N\OC3(C(=O)O)CC3)c3csc(N)n3)C(=O)N2S(=O)(=O)O)C(=O)O1 (stereo in doubt)
- MIC (Escherichia coli [1]): 0.125 µg/mL (≈ 0.228 µM)
- MIC (Escherichia coli [2]): 0.125 µg/mL (≈ 0.228 µM)
- MIC (Escherichia coli [3]): 0.25 µg/mL (≈ 0.457 µM)
- half-life [4]: 6.54 days
- MIC (Pseudomonas aeruginosa [5]): 32 µg/mL (≈ 58.4 µM)
- MIC (Pseudomonas aeruginosa [6]): > 32 µg/mL
- Activity (Mus musculus): Toxic
- MIC (Escherichia coli [7]): 0.125 µg/mL (≈ 0.228 µM)
- MIC (Escherichia coli [8]): ≤ 0.06 µg/mL
- MIC (Escherichia coli [9]): 1 µg/mL (≈ 1.83 µM)
- MIC (Escherichia coli [10]): > 32 µg/mL
- MIC (Escherichia coli [11]): 0.125 µg/mL (≈ 0.228 µM)
- MIC (Escherichia coli [12]): 0.125 µg/mL (≈ 0.228 µM)
- MIC (Escherichia coli [13]): ≤ 0.06 µg/mL
- MIC (Escherichia coli [14]): ≤ 0.06 µg/mL
- MIC (Escherichia coli [15]): 0.03 µg/mL (≈ 0.0548 µM)
- MIC (Escherichia coli [16]): 0.06 µg/mL (≈ 0.11 µM)
- MIC (Escherichia coli [17]): ≤ 0.06 µg/mL
- MIC (Escherichia coli [18]): 0.125 µg/mL (≈ 0.228 µM)
- MIC (Escherichia coli [19]): ≤ 0.06 µg/mL
- MIC (Escherichia coli [20]): 2 µg/mL (≈ 3.65 µM)
- MIC (Escherichia coli [21]): 0.5 µg/mL (≈ 0.913 µM)

- MIC (Escherichia coli [1]): 0.125 µg/mL (≈ 0.219 µM)
- MIC (Escherichia coli [2]): 0.125 µg/mL (≈ 0.219 µM)
- MIC (Escherichia coli [3]): 0.25 µg/mL (≈ 0.437 µM)
- half-life [4]: 3.71 days
- MIC (Escherichia coli [7]): 0.125 µg/mL (≈ 0.219 µM)
- MIC (Escherichia coli [8]): 0.25 µg/mL (≈ 0.437 µM)
- MIC (Escherichia coli [9]): 1 µg/mL (≈ 1.75 µM)
- MIC (Escherichia coli [10]): 8 µg/mL (≈ 14 µM)
- MIC (Escherichia coli [11]): 0.25 µg/mL (≈ 0.437 µM)
- MIC (Escherichia coli [12]): 0.25 µg/mL (≈ 0.437 µM)
- MIC (Escherichia coli [13]): 0.25 µg/mL (≈ 0.437 µM)
- MIC (Escherichia coli [14]): 1 µg/mL (≈ 1.75 µM)
- MIC (Escherichia coli [15]): 0.03 µg/mL (≈ 0.0525 µM)
- MIC (Escherichia coli [16]): 0.125 µg/mL (≈ 0.219 µM)
- MIC (Escherichia coli [17]): 0.25 µg/mL (≈ 0.437 µM)
- MIC (Escherichia coli [18]): 0.125 µg/mL (≈ 0.219 µM)
- MIC (Escherichia coli [19]): 0.25 µg/mL (≈ 0.437 µM)
- MIC (Escherichia coli [20]): 1 µg/mL (≈ 1.75 µM)
- MIC (Escherichia coli [21]): 0.25 µg/mL (≈ 0.437 µM)
Structure (SMILES): N=C(N)NCc1cn(C[C@@H]2[C@H](NC(=O)/C(=N\OC3(C(=O)O)CC3)c3csc(N)n3)C(=O)N2S(=O)(=O)O)nn1 (stereo in doubt)

Structure (SMILES): Nc1nc(/C(=N/OC2(C(=O)O)CC2)C(=O)N[C@@H]2C(=O)N(S(=O)(=O)O)[C@@H]2CN2CCOC2=O)cs1 (stereo in doubt) [ANCREMONAM]
- MIC (Escherichia coli [1]): 0.125 µg/mL (≈ 0.241 µM)
- MIC (Escherichia coli [2]): 0.25 µg/mL (≈ 0.482 µM)
- MIC (Escherichia coli [3]): 0.125 µg/mL (≈ 0.241 µM)
- half-life [4]: 16.7 days
- MIC (Pseudomonas aeruginosa [5]): 32 µg/mL (≈ 61.7 µM)
- MIC (Pseudomonas aeruginosa [6]): 64 µg/mL (≈ 123 µM)
- Stability [22]: Stable
- Activity (Mus musculus): Non-Toxic
- Vd [23]: 0.3 L/kg
- Vd [24]: 0.3 L/kg
- Vd [25]: 0.2 L/kg
- half-life [26]: 18 min
- half-life [27]: 36 min
- half-life [28]: 48 min
- AUC [29]: 10000 ng·h/mL
- AUC [30]: 19000 ng·h/mL
- AUC [31]: 13000 ng·h/mL
- dose excreted [32]: 30%
- dose excreted [33]: 34%
- clearance [34]: 16 mL/min/kg
- clearance [35]: 9 mL/min/kg
- clearance [36]: 4 mL/min/kg
- MIC (Klebsiella pneumoniae [37]): 1 µg/mL (≈ 1.93 µM)
- Activity (Klebsiella pneumoniae [38]): 1590 mg/kg/day
- fT>MIC (Klebsiella pneumoniae [39]): 65%
- fraction unbound (in vitro [40]): 0.74
- fraction unbound (in vitro [41]): 0.53
- fraction unbound (in vitro [42]): 0.76
- fraction unbound (in vitro [43]): 0.87
- MIC (Escherichia coli [7]): 0.125 µg/mL (≈ 0.241 µM)
- MIC (Escherichia coli [8]): 0.125 µg/mL (≈ 0.241 µM)
- MIC (Escherichia coli [9]): 0.125 µg/mL (≈ 0.241 µM)
- MIC (Escherichia coli [10]): 8 µg/mL (≈ 15.4 µM)
- MIC (Escherichia coli [11]): 0.25 µg/mL (≈ 0.482 µM)
- MIC (Escherichia coli [12]): 0.5 µg/mL (≈ 0.964 µM)
- MIC (Escherichia coli [13]): 0.125 µg/mL (≈ 0.241 µM)
- MIC (Escherichia coli [14]): 0.25 µg/mL (≈ 0.482 µM)
- MIC (Escherichia coli [15]): 0.125 µg/mL (≈ 0.241 µM)
- MIC (Escherichia coli [16]): 0.125 µg/mL (≈ 0.241 µM)
- MIC (Escherichia coli [17]): 0.125 µg/mL (≈ 0.241 µM)
- MIC (Escherichia coli [18]): 0.125 µg/mL (≈ 0.241 µM)
- MIC (Escherichia coli [19]): 0.125 µg/mL (≈ 0.241 µM)
- MIC (Escherichia coli [20]): 2 µg/mL (≈ 3.86 µM)
- MIC (Escherichia coli [21]): 1 µg/mL (≈ 1.93 µM)
